Where two headings read alike, the source gives them in different places.
Key:
P-450cam mutant Y96A = P-450cam mutant Y96A (Pseudomonas putida, UniProt P00183, Y97A); assay: biochemical; assay type: binding; conditions: read-out: Vs DTT (percentage displacement of DTT bound to P-450); for percent displacement of bound DTT at 200 µM: Mutant Y96A, 200 μM DTT, 200 μM test compound, phosphate buffer
[1] = biological target: T1, P450cam mutant Y96A, C334A (Pseudomonas putida, UniProt P00183, C335A/Y97A); assay type: biochemical, P. putida; conditions: also contains C334A
T1 construct: reconstituted with putidaredoxin and putidaredoxin reductase
T1 sequence (P00259 whole entry): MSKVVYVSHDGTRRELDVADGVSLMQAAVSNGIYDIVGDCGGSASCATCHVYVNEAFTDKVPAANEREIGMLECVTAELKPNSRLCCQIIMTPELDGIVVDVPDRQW
T1 sequence (P00183 2-415 Y97A/C335A): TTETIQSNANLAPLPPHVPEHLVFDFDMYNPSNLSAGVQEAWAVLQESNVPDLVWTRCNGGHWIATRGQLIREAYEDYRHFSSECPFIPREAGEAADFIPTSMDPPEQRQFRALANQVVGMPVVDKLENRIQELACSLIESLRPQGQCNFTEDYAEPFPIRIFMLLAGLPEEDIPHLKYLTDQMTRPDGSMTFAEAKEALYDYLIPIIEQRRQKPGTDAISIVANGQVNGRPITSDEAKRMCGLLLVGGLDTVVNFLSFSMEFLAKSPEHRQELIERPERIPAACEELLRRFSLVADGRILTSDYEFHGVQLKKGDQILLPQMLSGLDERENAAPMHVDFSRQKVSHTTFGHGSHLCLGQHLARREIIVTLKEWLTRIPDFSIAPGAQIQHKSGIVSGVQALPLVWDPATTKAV
T1 sequence (P16640 whole entry, further chain): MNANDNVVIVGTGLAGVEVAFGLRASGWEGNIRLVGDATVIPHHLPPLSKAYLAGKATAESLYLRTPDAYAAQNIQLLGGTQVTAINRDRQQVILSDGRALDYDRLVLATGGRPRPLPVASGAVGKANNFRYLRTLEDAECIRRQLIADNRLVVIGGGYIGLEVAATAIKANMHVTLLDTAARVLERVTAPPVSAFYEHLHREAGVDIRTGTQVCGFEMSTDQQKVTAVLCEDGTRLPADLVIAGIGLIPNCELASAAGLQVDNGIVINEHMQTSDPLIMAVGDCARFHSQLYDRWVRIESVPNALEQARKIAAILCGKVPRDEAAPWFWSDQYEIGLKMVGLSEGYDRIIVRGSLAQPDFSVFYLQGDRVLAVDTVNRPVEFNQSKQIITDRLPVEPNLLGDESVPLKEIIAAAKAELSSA
Procedure: A solution containing 10 μM putidaredoxin, 2 μM putidaredoxin reductase, 1 μM cytochrome P-450cam mono-oyxgenase (wild-type or mutant) and 1 mM diphenylmethane in 100 mM KC1, 20 mM KH2 PO4 pH7.4 was preincubated at 25° C. in a shaker for 5 min. The enzymatic reaction was initiated by firstly adding NADH to a total concentration of 2 mM. Further four aliquots of NADH (to increase the NADH concentration by 1 mM each time) were added in intervals of 5 min and the reaction quenched after 30 min by adding 0.5 ml chloroform. The chloroform layer was analysed by gas chromatography.
Reaction products for some substrate compounds have been purified by high performance liquid chromatography and identified by mass spectroscopy, nuclear magnetic resonance, and/or co-elution. […] Table 4(a) to 4(h) details the product distributions for mutant and substrate combinations where this has been elucidated to date.
All mutants listed below also contain the C334A mutation.
Turnover rate measured as NADH consumption rate
(nmole NADH/nmole P450cam/s).

wild type P450cam = wild type P450cam (Pseudomonas putida, UniProt P00183); assay: biochemical; assay type: binding; conditions: read-out: Vs DTT (percentage displacement of DTT bound to P-450)
Chain of wild type P450cam (P00183 whole entry): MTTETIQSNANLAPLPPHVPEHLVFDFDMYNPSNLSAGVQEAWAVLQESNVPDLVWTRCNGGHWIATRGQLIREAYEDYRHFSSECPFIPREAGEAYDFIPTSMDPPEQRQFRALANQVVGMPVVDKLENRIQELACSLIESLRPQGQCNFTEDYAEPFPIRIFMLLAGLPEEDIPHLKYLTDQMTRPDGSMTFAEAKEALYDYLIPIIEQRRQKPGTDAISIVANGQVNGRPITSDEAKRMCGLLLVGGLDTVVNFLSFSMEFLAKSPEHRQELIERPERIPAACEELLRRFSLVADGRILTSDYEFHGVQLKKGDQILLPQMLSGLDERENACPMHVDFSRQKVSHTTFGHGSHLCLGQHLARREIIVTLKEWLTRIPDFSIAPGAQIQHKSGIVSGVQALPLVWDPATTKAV

[2] = Wild type, 200 μM DTT, 200 μM test compound, phosphate buffer

Chain of P-450cam mutant Y96A (P00183 2-415 Y97A): as the sequence (P00183 2-415 Y97A/C335A) above, with A334C counted along it

SMILES | percent displacement of bound DTT at 200 µM (P-450cam mutant Y96A) [%] | inhibition at 200 µM (wild type P450cam; [2]) [%] | also measured
CCc1cccc2ccccc12 [1-Ethylnaphthalene] | 20 |  | 
CCC(CC)CC [3-ethyl pentane] |  |  | Turnover rate measured as NADH consumption rate [1]: 16.2 nmole NADH/nmole P450cam/s
O=C1c2ccccc2-c2ccccc21 [9-Fluorenone] | 5 | 20 | 
CCC(=O)Oc1cccc2ccccc12 [1-Naphthylpropionate] | 20 | 20 | 
c1ccc(CNc2ccccc2)cc1 [N-Phenylbenzylamine] |  | 5 | 
c1ccc(COCc2ccccc2)cc1 [Benzylether] |  | 5 | 
Cc1ccccc1 [Toluene] | 30 |  | 
CC(=O)Oc1cccc2ccccc12 [1-Naphthylacetate] | 5 | 5 | 
CCCCCCCCCCCC [n-Dodecane] | 5 |  | 
c1ccc2c(c1)Cc1ccccc1-2 [Fluorene] | 50 |  | 
O=Cc1ccc2c(c1)Cc1ccccc1-2 [2-Fluorencarboxzaldehyde] | 50 |  | 
CCC(C)C [2-methyl butane] |  |  | Turnover rate measured as NADH consumption rate [1]: 4.6 nmole NADH/nmole P450cam/s
CC(=O)Oc1ccc2ccccc2c1 [2-Naphthylacetate] | 5 | 5 | 
c1ccc(-c2ccccc2)cc1 [Biphenyl] |  |  | inhibition at 200 µM (wild type P450cam): 20%; inhibition at 200 µM (P-450cam mutant Y96A): 90%
CCCC(=O)Oc1cccc2ccccc12 [1-Naphthylbutyrate] | 5 | 5 | 
CCc1ccc2ccccc2c1 [2-Ethylnaphthalene] | 20 |  | 
O=C1c2ccccc2Cc2ccccc21 [Anthrone] | 5 | 5 | 

SMILES | percent displacement of bound DTT at 200 µM (P-450cam mutant Y96A) [%] | inhibition at 200 µM (wild type P450cam; [2]) [%] | also measured
O=C(Oc1ccccc1)c1ccccc1 [Phenylbenzoate] |  | 5 | 
CCCCCC(C)C [2-methyl heptane] |  |  | Turnover rate measured as NADH consumption rate [1]: 2.1 nmole NADH/nmole P450cam/s
CCc1ccccc1 [Ethylbenzene] | 40 |  | 
CCCCCCCC/C=C\CCCCCCCC(=O)O [Oleic acid] | ~20 | ~10 | 
CCCCCCCCCCC [n-Undecane] | 20 |  | 
C=CC(=C)C [Isoprene] | 10 |  | 
CC(C)C(C)C [2,3-dimethyl butane] |  |  | Turnover rate measured as NADH consumption rate [1]: 16.8 nmole NADH/nmole P450cam/s
C1=CCCCC1 [Cyclohexene] | 40 | 5 | 
CC(C)=CCC/C(C)=C/CC/C(C)=C/CC/C=C(\C)CC/C=C(\C)CCC=C(C)C [Squalene] | 20 |  | 
O=C(c1ccccc1)C1CCCCC1 [Cyclohexylphenylketone] |  | 30 | 
c1ccc(CCc2ccccc2)cc1 [Bibenzyl] | 55 |  | 
CCC(C)(C)C [2,2-dimethyl butane] |  |  | Turnover rate measured as NADH consumption rate [1]: 14.0 nmole NADH/nmole P450cam/s
O=C(c1ccccc1)c1ccc2ccccc2c1 [Naphthylphenylketone] | 5 | 5 | 
CCCCCCCCCCCCOS(=O)(=O)O [SDS] | 60 | 20 | 
C(=C/c1ccccc1)/c1ccccc1 [cis-Stilbene] | 50 | 20 | 
C=Cc1ccccc1 [Styrene] | 30 |  | 
